Laboratory results reported in ChEMBL document CHEMBL1131898, “4-Pyridin-5-yl-2-(3,4,5-trimethoxyphenylamino)pyrimidines: potent and selective inhibitors of ZAP 70” (Bioorg Med Chem Lett, 1999).

Key:
Protein kinase C (PKC) = test: Inhibition of protein kinase C (PKC); type: protein assay
[1] = target: T1, Tyrosine-protein kinase ZAP-70 (Homo sapiens, UniProt P43403); test: Inhibition of Zeta-chain (TCR) associated protein kinase 70 kDa phosphorylation of polyGly-Tyr.
T1 sequence (P43403 whole entry): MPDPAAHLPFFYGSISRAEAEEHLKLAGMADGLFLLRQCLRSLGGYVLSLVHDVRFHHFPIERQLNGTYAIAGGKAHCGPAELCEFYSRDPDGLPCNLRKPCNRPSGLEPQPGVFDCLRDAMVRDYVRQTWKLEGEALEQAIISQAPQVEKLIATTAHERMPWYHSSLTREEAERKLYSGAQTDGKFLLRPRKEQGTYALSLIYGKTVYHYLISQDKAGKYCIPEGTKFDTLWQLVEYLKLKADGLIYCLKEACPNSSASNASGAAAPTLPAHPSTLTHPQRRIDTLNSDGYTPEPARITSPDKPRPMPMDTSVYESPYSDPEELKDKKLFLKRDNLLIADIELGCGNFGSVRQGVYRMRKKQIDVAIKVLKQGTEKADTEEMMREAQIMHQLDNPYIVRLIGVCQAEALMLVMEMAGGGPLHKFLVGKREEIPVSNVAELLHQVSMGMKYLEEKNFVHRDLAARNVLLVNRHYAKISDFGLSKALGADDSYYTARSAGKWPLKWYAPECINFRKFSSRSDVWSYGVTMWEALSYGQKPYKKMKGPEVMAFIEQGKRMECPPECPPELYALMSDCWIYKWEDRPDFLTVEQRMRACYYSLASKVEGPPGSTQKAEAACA

[2] = target: Tyrosine-protein kinase Lck (Homo sapiens, UniProt P06239); test: Inhibition of p56 lck tyrosine kinase
Sequence of Tyrosine-protein kinase Lck (P06239 whole entry): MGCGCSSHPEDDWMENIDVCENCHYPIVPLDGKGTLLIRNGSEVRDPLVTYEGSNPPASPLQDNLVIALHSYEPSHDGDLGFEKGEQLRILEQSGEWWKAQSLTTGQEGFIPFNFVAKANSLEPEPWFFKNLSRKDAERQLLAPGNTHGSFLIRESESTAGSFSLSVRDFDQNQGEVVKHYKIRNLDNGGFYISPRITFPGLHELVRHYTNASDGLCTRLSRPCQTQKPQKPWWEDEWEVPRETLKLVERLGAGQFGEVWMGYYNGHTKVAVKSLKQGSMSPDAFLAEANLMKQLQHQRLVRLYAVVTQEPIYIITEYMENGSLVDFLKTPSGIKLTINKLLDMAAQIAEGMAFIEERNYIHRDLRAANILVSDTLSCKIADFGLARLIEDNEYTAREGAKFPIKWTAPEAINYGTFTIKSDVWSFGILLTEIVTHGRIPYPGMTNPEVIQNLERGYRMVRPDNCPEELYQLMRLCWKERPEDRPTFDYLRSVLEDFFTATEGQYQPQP

[3] = target: Epidermal growth factor receptor (Homo sapiens, UniProt P00533); test: Inhibition of Epidermal growth factor receptor (EGFr)
Sequence of Epidermal growth factor receptor (P00533 whole entry): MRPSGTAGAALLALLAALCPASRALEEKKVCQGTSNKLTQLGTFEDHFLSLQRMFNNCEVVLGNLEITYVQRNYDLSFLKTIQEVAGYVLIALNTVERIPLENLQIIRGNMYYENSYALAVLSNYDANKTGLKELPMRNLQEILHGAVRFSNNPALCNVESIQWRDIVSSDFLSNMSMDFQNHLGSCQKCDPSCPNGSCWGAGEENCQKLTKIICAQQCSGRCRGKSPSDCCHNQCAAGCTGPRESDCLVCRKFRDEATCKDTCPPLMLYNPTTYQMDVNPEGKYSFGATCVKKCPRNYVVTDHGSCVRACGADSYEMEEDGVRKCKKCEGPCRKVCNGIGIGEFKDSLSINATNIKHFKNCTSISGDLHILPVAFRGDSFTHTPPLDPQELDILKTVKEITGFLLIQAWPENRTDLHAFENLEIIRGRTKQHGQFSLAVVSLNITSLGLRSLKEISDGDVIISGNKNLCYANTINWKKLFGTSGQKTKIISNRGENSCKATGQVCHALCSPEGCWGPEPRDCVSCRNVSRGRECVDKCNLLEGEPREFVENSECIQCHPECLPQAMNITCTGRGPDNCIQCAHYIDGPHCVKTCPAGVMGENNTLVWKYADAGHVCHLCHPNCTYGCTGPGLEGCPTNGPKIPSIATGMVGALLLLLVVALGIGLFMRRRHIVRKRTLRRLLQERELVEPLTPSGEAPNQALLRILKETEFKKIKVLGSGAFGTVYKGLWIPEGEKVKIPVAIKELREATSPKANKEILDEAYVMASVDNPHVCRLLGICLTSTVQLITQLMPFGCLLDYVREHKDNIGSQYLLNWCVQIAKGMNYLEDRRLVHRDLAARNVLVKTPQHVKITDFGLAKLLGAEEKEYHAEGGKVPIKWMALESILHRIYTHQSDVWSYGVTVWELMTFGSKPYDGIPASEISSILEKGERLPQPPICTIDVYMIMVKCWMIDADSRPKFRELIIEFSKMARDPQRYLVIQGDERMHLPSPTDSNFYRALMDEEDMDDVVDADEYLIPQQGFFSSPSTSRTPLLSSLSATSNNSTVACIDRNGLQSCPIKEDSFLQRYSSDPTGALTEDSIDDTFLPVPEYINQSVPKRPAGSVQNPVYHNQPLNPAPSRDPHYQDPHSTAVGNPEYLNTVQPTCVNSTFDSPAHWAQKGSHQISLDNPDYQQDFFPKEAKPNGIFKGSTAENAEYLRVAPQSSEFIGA

[4] = target: Tyrosine-protein kinase CSK (Homo sapiens, UniProt P41240); test: Inhibition of csk tyrosine kinase
Sequence of Tyrosine-protein kinase CSK (P41240 whole entry): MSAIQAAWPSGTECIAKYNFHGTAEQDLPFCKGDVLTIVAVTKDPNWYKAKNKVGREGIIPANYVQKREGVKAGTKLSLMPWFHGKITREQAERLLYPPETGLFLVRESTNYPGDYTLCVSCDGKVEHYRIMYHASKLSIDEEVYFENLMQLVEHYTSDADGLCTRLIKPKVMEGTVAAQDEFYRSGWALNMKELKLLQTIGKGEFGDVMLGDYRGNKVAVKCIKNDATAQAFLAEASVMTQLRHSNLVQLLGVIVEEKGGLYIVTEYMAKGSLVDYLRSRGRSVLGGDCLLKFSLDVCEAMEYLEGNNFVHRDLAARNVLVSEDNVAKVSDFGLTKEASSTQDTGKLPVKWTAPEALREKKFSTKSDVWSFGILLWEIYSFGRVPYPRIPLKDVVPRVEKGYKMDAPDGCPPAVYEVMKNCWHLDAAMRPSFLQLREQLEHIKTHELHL

`COc1cc(Nc2nccc(-c3cccnc3)n2)cc(OC)c1OC` showed an IC50 (Protein kinase C (PKC)) of 1.4 µM, an IC50 [1] of 1.9 µM and an IC50 [2] of 1.1 µM.

`CC[C@H]1CN(c2ccc(-c3ccnc(Nc4cc(OC)c(OC)c(OC)c4)n3)cn2)CCN1` gave an IC50 (Protein kinase C (PKC)) of 2.874 µM, an IC50 [1] of 0.008 µM and an IC50 [2] of 2.2 µM.

For `COc1cc(Nc2nccc(-c3ccc(NCCN)nc3)n2)cc(OC)c1OC`, the IC50 (Protein kinase C (PKC)) was 0.15 µM, the IC50 [3] was 5.1 µM and the IC50 [2] was 1.2 µM. For the same molecule, the IC50 [4] was over 10 µM.

Molecule `COc1cc(Nc2nccc(-c3ccc(N4CCNCC4)nc3)n2)cc(OC)c1OC` has an IC50 (Protein kinase C (PKC)) of 1.3 µM, an IC50 [1] of 0.054 µM and an IC50 [2] of 3.3 µM. The IC50 [4] was over 10 µM.
